Data from ChEMBL document CHEMBL1201862, “PubChem BioAssay data set” (2004).
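48-hour exposure; five concentrations; linearly interpolated endpoints. Abbreviation: GI50, concentration required for 50% inhibition of growth.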 The source made the active and inactive calls. No stated cut-off is given here; in the data, active = GI50 up to about 1.1 µM and inactive = higher.

Key:
Test in all cases: inhibition of tumour cell growth, NCI panel, 48 h
TK-10 = system: TK-10
UACC-62 = system: UACC-62
COLO 205 = system: COLO 205
SW-620 = system: SW-620
K562 = system: K562
OVCAR-4 = system: OVCAR-4
Hs-578T = system: Hs-578T
IGROV-1 = system: IGROV-1
M14 = system: M14
NCI-H226 = system: NCI-H226
KM12 = system: KM12
NCI-H522 = system: NCI-H522
NCI-H460 = system: NCI-H460
U-251 = system: U-251
SF-295 = system: SF-295
A498 = system: A498
SK-MEL-5 = system: SK-MEL-5
LOX IMVI = system: LOX IMVI
Malme-3M = system: Malme-3M
DU-145 = system: DU-145
NCI/ADR-RES = system: NCI/ADR-RES
UACC-257 = system: UACC-257
SF-268 = system: SF-268
786-0 = system: 786-0
RPMI-8226 = system: RPMI-8226
OVCAR-8 = system: OVCAR-8
SK-MEL-28 = system: SK-MEL-28
SF-539 = system: SF-539
BT-549 = system: BT-549
MOLT-4 = system: MOLT-4
ACHN = system: ACHN
SK-MEL-2 = system: SK-MEL-2
HL-60 = system: HL-60
HCT-15 = system: HCT-15
HT-29 = system: HT-29
CCRF-CEM = system: CCRF-CEM
SNB-75 = system: SNB-75
MDA-N = system: MDA-N
CAKI-1 = system: CAKI-1
EKVX = system: EKVX
OVCAR-5 = system: OVCAR-5
MDA-MB-435 = system: MDA-MB-435
HOP-92 = system: HOP-92
SNB-19 = system: SNB-19
SR = system: SR
HCT-116 = system: HCT-116
SK-OV-3 = system: SK-OV-3
MDA-MB-231 = system: MDA-MB-231
T47D = system: T47D
HOP-62 = system: HOP-62
RXF 393 = system: RXF 393
A549 = system: A549
HCC 2998 = system: HCC 2998
PC-3 = system: PC-3
OVCAR-3 = system: OVCAR-3
NCI-H23 = system: NCI-H23
UO-31 = system: UO-31
MCF7 = system: MCF7
SN12C = system: SN12C
LXFL 529 = system: LXFL 529
XF498 = system: XF498
KM-20L2 = system: KM-20L2
SNB-78 = system: SNB-78
DMS-114 = system: DMS-114
DLD-1 = system: DLD-1
M19-MEL = system: M19-MEL

Measured: GI50

C[C@]12CC[C@H](O)C[C@H]1CC[C@@H]1[C@@H]2CC[C@]2(C)[C@@H](C3=CC(=O)OC3)[C@@H](O)C[C@]12O [GITOXIGENIN]
inactive: UACC-62 2.62 µM | COLO 205 2.61 µM | SW-620 3.18 µM | K562 3.38 µM | OVCAR-4 1.4 µM | IGROV-1 2.86 µM | M14 2.45 µM | NCI-H226 3.12 µM | KM12 4.85 µM | U-251 2.22 µM | SF-295 1.41 µM | A498 2.72 µM | SK-MEL-5 1.3 µM | LOX IMVI 2.9 µM | Malme-3M 1.77 µM | NCI/ADR-RES 1.61 µM | UACC-257 2.2 µM | RPMI-8226 2.77 µM | OVCAR-8 2.93 µM | SK-MEL-28 5.13 µM | BT-549 1.89 µM | SK-MEL-2 2.17 µM | HL-60 1.62 µM | HT-29 3.27 µM | SNB-75 4.15 µM | MDA-N 2.42 µM | CAKI-1 1.58 µM | OVCAR-5 2.81 µM | MDA-MB-435 3.01 µM | HOP-92 9.66 µM | SNB-19 4.45 µM | HCT-116 1.66 µM | SK-OV-3 2.71 µM | MDA-MB-231 4.93 µM | T47D 3.65 µM | RXF 393 1.15 µM | HCC 2998 2.47 µM | PC-3 1.44 µM | MCF7 2.05 µM
2.58 µM: HCT-15
active: TK-10 0.625 µM | Hs-578T 0.968 µM | NCI-H522 0.435 µM | NCI-H460 0.499 µM | DU-145 1.04 µM | SF-268 0.845 µM | 786-0 0.995 µM | SF-539 0.849 µM | MOLT-4 0.408 µM | ACHN 0.451 µM | CCRF-CEM 0.51 µM | EKVX 0.785 µM | SR 0.977 µM | HOP-62 1.11 µM | A549 0.445 µM | OVCAR-3 0.457 µM | NCI-H23 0.682 µM | UO-31 0.914 µM | SN12C 0.566 µM

CC1(Br)Cc2ccccc2C1=O (centres undefined)
7.78 µM: HCT-15
inactive: TK-10 16.1 µM | UACC-62 1.29 µM | COLO 205 4.35 µM | SW-620 4.75 µM | K562 3.33 µM | OVCAR-4 6.89 µM | Hs-578T 6.79 µM | IGROV-1 4.12 µM | M14 3.09 µM | NCI-H226 2.34 µM | KM12 12.6 µM | NCI-H522 4.14 µM | NCI-H460 > 10 µM | U-251 4.59 µM | SF-295 18.7 µM | A498 21.9 µM | SK-MEL-5 5.71 µM | LOX IMVI 3.09 µM | Malme-3M 3.36 µM | DU-145 13.7 µM | NCI/ADR-RES 13.1 µM | UACC-257 9.53 µM | SF-268 4.68 µM | 786-0 2.15 µM | RPMI-8226 5.65 µM | OVCAR-8 8.57 µM | SK-MEL-28 2.29 µM | SF-539 4.98 µM | BT-549 1.7 µM | MOLT-4 2.13 µM | ACHN 4.17 µM | SK-MEL-2 10.1 µM | HL-60 2.79 µM | HT-29 4.36 µM | CCRF-CEM 1.75 µM | SNB-75 13 µM | MDA-N 3.92 µM | CAKI-1 8.71 µM | EKVX 3.27 µM | OVCAR-5 3.43 µM | MDA-MB-435 4.47 µM | HOP-92 6.49 µM | SNB-19 33.3 µM | SR 2.45 µM | HCT-116 3.86 µM | SK-OV-3 9.06 µM | MDA-MB-231 6.92 µM | T47D 9.31 µM | HOP-62 15.3 µM | RXF 393 > 10 µM | A549 12.5 µM | HCC 2998 > 100 µM | PC-3 10.3 µM | OVCAR-3 8.99 µM | NCI-H23 5.41 µM | UO-31 6.95 µM | MCF7 3.73 µM | SN12C 7.59 µM

O=c1c2ccccc2c2ccccc2c(=O)n1Cc1ccc2c(c1)OCO2
17 µM: HCT-15
inactive: TK-10 > 100 µM | UACC-62 21.6 µM | COLO 205 34 µM | SW-620 33.3 µM | K562 7.45 µM | OVCAR-4 > 67.3 µM | Hs-578T 37.9 µM | IGROV-1 8.51 µM | M14 26.9 µM | NCI-H226 56.1 µM | KM12 19.5 µM | NCI-H522 30.8 µM | NCI-H460 24.6 µM | U-251 > 62.2 µM | SF-295 35.4 µM | A498 > 70.5 µM | SK-MEL-5 20.3 µM | LOX IMVI 40 µM | Malme-3M 67.9 µM | DU-145 49.9 µM | NCI/ADR-RES 24.9 µM | UACC-257 57.1 µM | SF-268 59.7 µM | 786-0 27 µM | RPMI-8226 15.9 µM | OVCAR-8 45.7 µM | SK-MEL-28 56.6 µM | SF-539 27.1 µM | BT-549 20.9 µM | MOLT-4 12.9 µM | ACHN 45.4 µM | SK-MEL-2 39.7 µM | HL-60 11.4 µM | HT-29 22.6 µM | CCRF-CEM 19.1 µM | SNB-75 42.7 µM | MDA-N 10.1 µM | CAKI-1 69.7 µM | EKVX 36.1 µM | OVCAR-5 34 µM | MDA-MB-435 6.17 µM | HOP-92 > 94.8 µM | SNB-19 52.1 µM | SR 4.91 µM | HCT-116 19.1 µM | SK-OV-3 41.4 µM | MDA-MB-231 > 96.2 µM | T47D 39.9 µM | HOP-62 62.1 µM | RXF 393 36 µM | A549 32.1 µM | HCC 2998 25.1 µM | PC-3 42.8 µM | OVCAR-3 24.6 µM | NCI-H23 24.7 µM | UO-31 49.5 µM | MCF7 38.9 µM | SN12C 37.5 µM

CC(=O)NNc1nc(C)c(C(=O)NNC(=O)C(=O)Nc2ccc(Cl)cc2Cl)s1
38.5 µM: HCT-15
inactive: TK-10 74.3 µM | UACC-62 25.2 µM | COLO 205 35.9 µM | LXFL 529 29.4 µM | SW-620 22.2 µM | K562 21 µM | OVCAR-4 22 µM | IGROV-1 63.5 µM | M14 42.5 µM | NCI-H226 34.2 µM | XF498 30.1 µM | KM12 53.7 µM | NCI-H522 19.5 µM | NCI-H460 > 10 µM | U-251 31.1 µM | SF-295 42.1 µM | SK-MEL-5 30.5 µM | LOX IMVI 33.7 µM | Malme-3M 57 µM | UACC-257 31 µM | SF-268 27.4 µM | 786-0 40.7 µM | RPMI-8226 31.3 µM | OVCAR-8 40.2 µM | SK-MEL-28 39.9 µM | SF-539 30.1 µM | MOLT-4 20.1 µM | ACHN 29.2 µM | SK-MEL-2 44.1 µM | HL-60 37.4 µM | KM-20L2 40.1 µM | HT-29 48.5 µM | CCRF-CEM 20.6 µM | CAKI-1 28.3 µM | SNB-78 36.6 µM | EKVX 40.1 µM | OVCAR-5 55.1 µM | DMS-114 33.2 µM | HOP-92 25.9 µM | SNB-19 42.6 µM | HCT-116 47.2 µM | SK-OV-3 31.9 µM | DLD-1 38.4 µM | HOP-62 38.5 µM | A549 35.9 µM | HCC 2998 40.6 µM | OVCAR-3 19.6 µM | M19-MEL 38.4 µM | NCI-H23 32.8 µM | UO-31 28.2 µM | SN12C 45.6 µM
